This note sets out measurements from patent US11530210B2, “Substituted heteroaromatic pyrazolo-pyridines and their use as GLUN2B receptor modulators” (JANSSEN PHARMACEUTICA NV, priority 2019, dated 2022).

Counter-ions that a name gives are not always drawn.

The target in this experiment is T1, human GluN1/GluN2B NMDA receptors (Homo sapiens, UniProt Q13224).
T1 construct: expressed in transfected cells
T1 sequence (Q13224 27-1484, other chains not shown): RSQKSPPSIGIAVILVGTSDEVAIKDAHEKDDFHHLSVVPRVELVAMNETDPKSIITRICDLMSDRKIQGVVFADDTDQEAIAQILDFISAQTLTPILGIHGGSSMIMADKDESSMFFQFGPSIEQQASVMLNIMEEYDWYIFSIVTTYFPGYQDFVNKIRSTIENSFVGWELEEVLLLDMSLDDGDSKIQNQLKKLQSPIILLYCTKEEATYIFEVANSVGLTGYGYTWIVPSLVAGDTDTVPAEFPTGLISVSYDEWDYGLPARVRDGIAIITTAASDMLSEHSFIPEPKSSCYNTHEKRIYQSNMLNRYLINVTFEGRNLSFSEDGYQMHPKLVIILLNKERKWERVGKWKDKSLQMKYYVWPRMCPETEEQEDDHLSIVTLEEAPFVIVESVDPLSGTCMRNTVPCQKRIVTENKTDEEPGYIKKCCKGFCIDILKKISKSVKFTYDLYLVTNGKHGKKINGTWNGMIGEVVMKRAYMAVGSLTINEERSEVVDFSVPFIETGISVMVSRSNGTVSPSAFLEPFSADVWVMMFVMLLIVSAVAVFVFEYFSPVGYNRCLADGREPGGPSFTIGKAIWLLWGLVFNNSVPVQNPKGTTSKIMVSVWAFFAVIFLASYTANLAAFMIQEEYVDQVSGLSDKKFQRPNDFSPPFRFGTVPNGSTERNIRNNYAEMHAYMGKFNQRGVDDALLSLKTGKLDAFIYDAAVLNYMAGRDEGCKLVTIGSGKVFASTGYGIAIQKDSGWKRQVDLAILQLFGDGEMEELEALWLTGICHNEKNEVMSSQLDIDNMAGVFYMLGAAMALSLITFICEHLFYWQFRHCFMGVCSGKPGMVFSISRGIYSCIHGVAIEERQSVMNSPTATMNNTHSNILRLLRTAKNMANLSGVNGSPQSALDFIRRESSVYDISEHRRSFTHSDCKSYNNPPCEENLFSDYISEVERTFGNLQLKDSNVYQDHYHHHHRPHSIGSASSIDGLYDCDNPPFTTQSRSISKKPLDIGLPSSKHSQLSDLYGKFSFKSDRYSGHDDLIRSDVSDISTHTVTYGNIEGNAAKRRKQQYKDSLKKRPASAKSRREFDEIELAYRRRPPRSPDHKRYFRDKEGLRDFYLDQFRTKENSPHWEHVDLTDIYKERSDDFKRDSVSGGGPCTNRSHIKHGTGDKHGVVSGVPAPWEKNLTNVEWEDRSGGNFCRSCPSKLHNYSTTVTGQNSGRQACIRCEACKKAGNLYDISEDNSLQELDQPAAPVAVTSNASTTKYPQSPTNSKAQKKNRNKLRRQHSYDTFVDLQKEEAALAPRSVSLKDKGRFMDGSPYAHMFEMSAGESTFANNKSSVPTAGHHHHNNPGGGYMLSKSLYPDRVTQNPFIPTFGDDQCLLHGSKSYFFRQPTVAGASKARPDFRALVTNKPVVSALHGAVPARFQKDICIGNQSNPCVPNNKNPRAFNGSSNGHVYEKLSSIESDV
Nature of the experiment: Calcium flux (FLIPR) assay on cloned human NR1/GluN2B ion channels expressed in mammalian cells (standard and HTS variants). The format is cell-based. The note with it: cells expressing human GluN1/GluN2B, glutamate and glycine co-agonists. How it is done:
Effects of Test Articles on Cloned Human NR1/GuN2B Ion Channels Expressed in Mammalian Cells
NMDA receptors are ion channels that are highly permeable to Ca^2+ ions, rendering it possible to monitor NMDA receptor function using cell-based calcium flux assay. In this assay, co-agonists glutamate and glycine are added to cells heterologously expressing human GluN1/GluN2B NMDA receptors to initiate cellular Ca^2+ influx. The time course of the changes in intracellular calcium is measured using a fluorescent dye and a FLIPR (Fluorometric Imaging Plate Reader) device.
Twenty-four hours before measurements, the expression of the NMDA receptors in the stable cell line is induced with Tet-On inducible system in the presence of a non-selective NMDA receptor blocker. On the day of the experiment, cell culture media is carefully washed, and the cells are loaded with Calcium 5 Dye Kit (Molecular Devices) in dye loading buffer containing 137 mM NaCl, 4 mM KCl, 2 mM CaCl2, 0.5 mM MgCl2 (standard assay) or 1.5 mM MgCl2 (HTS assay), 10 mM HEPES and 5 mM D-glucose; pH 7.4. After 1 h incubation at the room temperature, the dye is washed away with the assay buffer (137 mM NaCl (standard assay) or 150 mM (HTS assay), 4 mM KCl (standard assay) or 3 mM (HTS assay), 2 mM CaCl2), 0.01 mM EDTA, 10 mM HEPES and 5 mM D-glucose; pH 7.4) In the FLIPR TETRA reader, various concentrations of the test compounds are added to the cells for 5 min while fluorescence is monitored to detect potential agonist activity. Next, co-agonists, glutamate and glycine are added for another 5 minutes. The concentration of glutamate corresponding to ˜EC40 (standard assay) or EC40 (HTS assay) is used to maximize the assay's signal window and ability to detect NMDA receptor antagonists and negative allosteric modulators. A saturating concentration (10 μM) of glycine is also present in the assay. A non-selective NMDA receptor antagonist, (+)MK-801 is used as a positive control for antagonist activity. The fluorescent signal in the presence of test compounds is quantified and normalized to the signal defined by the appropriate control wells.
For `Cc1cncc(Cn2ncc3ncc(-c4ccc(Cl)c(OC(F)F)c4)cc32)c1` [Example 239, 6-[4-Chloro-3-(difluoromethoxy)phenyl]-1-[(5-methyl-3-pyridyl)methyl]pyrazolo[4,3-b]pyridine], the IC50 was 120 nM. As for `Cc1noc(Cn2ncc3ncc(-c4ccc(F)c(C(F)F)c4)cc32)n1` [Example 95, 5-[[6-[3-(Difluoromethyl)-4-fluoro-phenyl]pyrazolo[4,3-b]pyridin-1-yl]methyl]-3-methyl-1,2,4-oxadiazole], the IC50 came to 40 nM. Turning to `Fc1ccc(-c2cnc3cnn(Cc4cncc(Cl)c4)c3c2)cc1C(F)F` [Example 208, 1-[(5-Chloro-3-pyridyl)methyl]-6-[3-(difluoromethyl)-4-fluoro-phenyl]pyrazolo[4,3-b]pyridine], the 50% inhibitory concentration (IC50) came out at 26 nM. In the case of `Cc1nnc(Cn2nc(F)c3ncc(-c4ccc(F)c(C(C)(F)F)c4)cc32)o1` [Example 105, 2-[[6-[3-(1,1-Difluoroethyl)-4-fluoro-phenyl]-3-fluoro-pyrazolo[4,3-b]pyridin-1-yl]methyl]-5-methyl-1,3,4-oxadiazole], the concentration for half-maximal inhibition (IC50) was 367 nM. With `Cc1ncc(Cn2ncc3ncc(-c4cccc(C(F)(F)F)c4)cc32)cn1` [Example 4, 1-[(2-Methylpyrimidin-5-yl)methyl]-6-[3-(trifluoromethyl)phenyl]pyrazolo[4,3-b]pyridine trifluoroacetate salt], the IC50 worked out at 4670 nM.

`FC(F)(F)c1cccc(-c2cnc3cnn(Cc4ncon4)c3c2)c1` [Example 20, 3-[[6-[3-(Trifluoromethyl)phenyl]pyrazolo[4,3-b]pyridin-1-yl]methyl]-1,2,4-oxadiazole]: the IC50 is 751 nM. The same measure for `Cc1cc(-c2cnc3cnn(Cc4cccnc4C)c3c2)ccc1F` [Example 179, 6-(4-Fluoro-3-methyl-phenyl)-1-[(2-methyl-3-pyridyl)methyl]pyrazolo[4,3-b]pyridine]: 507 nM; for `Cc1cncc(Cn2ncc3ncc(-c4ccc(F)c(OC(F)F)c4)cc32)c1` [Example 224, 6-[3-(Difluoromethoxy)-4-fluoro-phenyl]-1-[(5-methyl-3-pyridyl)methyl]pyrazolo[4,3-b]pyridine]: 56 nM; for `Fc1ccc(-c2cnc3cnn(Cc4nnc(C(F)(F)F)o4)c3c2)cc1C(F)F` [Example 102, 2-[[6-[3-(Difluoromethyl)-4-fluoro-phenyl]pyrazolo[4,3-b]pyridin-1-yl]methyl]-5-(trifluoromethyl)-1,3,4-oxadiazole]: 49 nM. `Fc1cccc(-c2cnc3cnn(Cc4cccnn4)c3c2)c1` [Example 256, 6-(3-Fluorophenyl)-1-(pyridazin-3-ylmethyl)pyrazolo[4,3-b]pyridine trifluoroacetate salt]: the IC50 is 1410 nM. Take `Fc1ccc(-c2cnc3cnn(Cc4cncc(Cl)c4)c3c2)cc1OC(F)F` [Example 231, 1-[(5-Chloro-3-pyridyl)methyl]-6-[3-(difluoromethoxy)-4-fluoro-phenyl]pyrazolo[4,3-b]pyridine]: the IC50 was determined as 39 nM. `Fc1ccc(-c2cnc3cnn(Cc4cccnc4)c3c2)cc1F` [Example 187, 6-(3,4-Difluorophenyl)-1-(3-pyridylmethyl)pyrazolo[4,3-b]pyridine trifluoroacetate salt]: the IC50 was determined as 218 nM.

On to `CN(C)c1nnc(Cn2ncc3ncc(-c4ccc(F)c(C(F)F)c4)cc32)o1` [Example 101, 5-[[6-[3-(Difluoromethyl)-4-fluoro-phenyl]pyrazolo[4,3-b]pyridin-1-yl]methyl]-N,N-dimethyl-1,3,4-oxadiazol-2-amine], for which the IC50 was above 2990 nM. `Cc1ccncc1Cn1ncc2ncc(-c3ccc(F)c(C)c3F)cc21` [Example 247, 6-(2,4-Difluoro-3-methyl-phenyl)-1-[(4-methyl-3-pyridyl)methyl]pyrazolo[4,3-b]pyridine trifluoroacetate salt]: the IC50 came out at 128 nM.

On to `CC(F)(F)c1cc(-c2cnc3cnn(Cc4cncc(F)c4)c3c2)ccc1F` [Example 218, 6-[3-(1,1-Difluoroethyl)-4-fluoro-phenyl]-1-[(5-fluoro-3-pyridyl)methyl]pyrazolo[4,3-b]pyridine], for which the IC50 was 107 nM. As to `FC(F)(F)c1cccc(-c2cnc3cnn(Cc4ncccn4)c3c2)c1` [Example 1, 1-(Pyrimidin-2-ylmethyl)-6-[3-(trifluoromethyl)phenyl]pyrazolo[4,3-b]pyridine], the IC50 worked out at 800 nM. The same measure for `COc1cccc(-c2cnc3cnn(Cc4nc(C)no4)c3c2)c1` [Example 81, 5-[[6-(3-Methoxyphenyl)pyrazolo[4,3-b]pyridin-1-yl]methyl]-3-methyl-1,2,4-oxadiazole]: 2310 nM. As for `FC(F)(F)c1cccc(-c2cnc3cnn(Cc4ccnnc4)c3c2)c1` [Example 254, 1-(Pyridazin-4-ylmethyl)-6-[3-(trifluoromethyl)phenyl]pyrazolo[4,3-b]pyridine], the IC50 was 548 nM. For the compound `Fc1ccc(-c2cnc3cnn(Cc4nnc(C(F)F)s4)c3c2)cc1C(F)F` [Example 129, 2-(Difluoromethyl)-5-[[6-[3-(difluoromethyl)-4-fluoro-phenyl]pyrazolo[4,3-b]pyridin-1-yl]methyl]-1,3,4-thiadiazole], the IC50 came to 17 nM. As to `Cc1noc(C)c1Cn1ncc2ncc(-c3ccc(F)c(C(F)F)c3)cc21` [Example 57, 4-[[6-[3-(Difluoromethyl)-4-fluoro-phenyl]pyrazolo[4,3-b]pyridin-1-yl]methyl]-3,5-dimethyl-isoxazole], the IC50 amounted to 82 nM. On to `Cc1cnc(Cn2ncc3ncc(-c4ccc(F)c(C(F)F)c4)cc32)s1` [Example 65, 2-[[6-[3-(Difluoromethyl)-4-fluoro-phenyl]pyrazolo[4,3-b]pyridin-1-yl]methyl]-5-methyl-thiazole], for which the IC50 was found to be 84 nM. `Cn1cc(Cn2ncc3ncc(-c4ccc(F)c(OC(F)F)c4)cc32)nn1` [Example 72, 6-[3-(Difluoromethoxy)-4-fluoro-phenyl]-1-[(1-methyltriazol-4-yl)methyl]pyrazolo[4,3-b]pyridine]: the IC50 amounted to 827 nM.

In the case of `Cc1nnc(Cn2ncc3ncc(-c4cccc(C(F)(F)F)c4)cc32)o1` [Example 85, 2-Methyl-5-[[6-[3-(trifluoromethyl)phenyl]pyrazolo[4,3-b]pyridin-1-yl]methyl]-1,3,4-oxadiazole], the IC50 worked out at 143 nM.

As to `Cc1cncc(Cn2ncc3ncc(-c4ccc(F)c(C)c4F)cc32)c1` [Example 246, 6-(2,4-Difluoro-3-methyl-phenyl)-1-[(5-methyl-3-pyridyl)methyl]pyrazolo[4,3-b]pyridine], the IC50 was 52 nM. Turning to `Cc1nnc(Cn2nc(F)c3ncc(-c4ccc(Cl)c(C(F)F)c4)cc32)o1` [Example 107, 2-[[6-[4-Chloro-3-(difluoromethyl)phenyl]-3-fluoro-pyrazolo[4,3-b]pyridin-1-yl]methyl]-5-methyl-1,3,4-oxadiazole], the IC50 was found to be 347 nM. The figure for `Fc1cncc(Cn2ncc3ncc(-c4cc(F)cc(F)c4)cc32)c1` [Example 185, 6-(3,5-Difluorophenyl)-1-[(5-fluoro-3-pyridyl)methyl]pyrazolo[4,3-b]pyridine] is 45 nM; for `N#Cc1cncc(Cn2ncc3ncc(-c4cccc(C(F)F)c4)cc32)c1` [Example 157, 5-[[6-[3-(Difluoromethyl)phenyl]pyrazolo[4,3-b]pyridin-1-yl]methyl]pyridine-3-carbonitrile] it is 64 nM; for `Fc1cncc(Cn2ncc3ncc(-c4ccc(Cl)cc4)cc32)c1` [Example 148, 6-(4-Chlorophenyl)-1-[(5-fluoro-3-pyridyl)methyl]pyrazolo[4,3-b]pyridine trifluoroacetate salt] it is 634 nM. The same measure for `Fc1ccc(-c2cnc3cnn(Cc4cccnc4)c3c2)cc1OC(F)F` [Example 223, 6-[3-(Difluoromethoxy)-4-fluoro-phenyl]-1-(3-pyridylmethyl)pyrazolo[4,3-b]pyridine]: 38 nM; for `Fc1cccc(-c2cnc3cnn(Cc4ccccn4)c3c2)c1` [Example 152, 6-(3-Fluorophenyl)-1-(2-pyridylmethyl)pyrazolo[4,3-b]pyridine]: 2180 nM. As to `Cc1ncc(Cn2ncc3ncc(-c4ccc(Cl)c(C)c4)cc32)cn1` [Example 286, 6-(4-Chloro-3-methyl-phenyl)-1-[(2-methylpyrimidin-5-yl)methyl]pyrazolo[4,3-b]pyridine], the IC50 is 3020 nM. In the case of `FC(F)Oc1cc(-c2cnc3cnn(Cc4cncc(Cl)c4)c3c2)ccc1Cl` [Example 243, 6-[4-Chloro-3-(difluoromethoxy)phenyl]-1-[(5-chloro-3-pyridyl)methyl]pyrazolo[4,3-b]pyridine], the half-inhibitory concentration (IC50) is 146 nM.
